Columns and labels:
HRV type 1A = assay: Inhibition of viral cytopathic effect (CPE), visual scoring or neutral red, HRV type 1A in MRC-5 cells; type: cell-based, human rhinovirus; details: for Activity on Rhinovirus Type 1A EC50: HRV type 1A in MRC-5 cells, CPE inhibition; for Activity on Rhinovirus Type 1A SI: selectivity index = CC50 or MTC divided by EC50, HRV type 1A, MRC-5 cells
HRV type 2 = assay: Inhibition of viral cytopathic effect (CPE), visual scoring or neutral red, HRV type 2 in KB cells; type: cell-based, human rhinovirus
[1] = test system: human embryo lung (MRC-5) cells; assay: Cytotoxicity (CC50 or MTC) in uninfected MRC-5 cells; details: unit not given

Row | Compound | Activity on Rhinovirus Type 1A EC50 (HRV type 1A) [µg/mL] | Activity on Rhinovirus Type 1A SI (HRV type 1A) | Activity on Rhinovirus Type 2 EC50 (HRV type 2; HRV type 2 in KB cells, CPE inhibition) [µg/mL] | Activity on Rhinovirus Type 2 SI (HRV type 2; selectivity index = CC50 or MTC divided by EC50, HRV type 2, KB cells) | Activity on Rhinovirus Type 1A MTC [1]
1 | CCON=C(C)c1ccc(OCCC2CCN(c3ccc(Cl)nn3)CC2)cc1 [Compound 3] | 0.005 | 1841 | 0.01 | >100 | >10.0
2 | C=CCON=Cc1ccc(OCCN2CCN(c3cccnn3)CC2)cc1 [Compound 66] | 0.05 | >18 |  |  | >1
3 | CON=Cc1ccc(OCCN2CCN(c3ccc(C)nn3)CC2)cc1 [Compound 67] | 0.04 | >20 |  |  | >1
4 | CCON=Cc1ccc(OCCN2CCN(c3ccc(C)nn3)CC2)cc1 [Compound 68] | 0.04 | >25 |  |  | >1
5 | C=CCON=Cc1ccc(OCCN2CCN(c3ccc(C)nn3)CC2)cc1 [Compound 69] | 0.18 | >5 |  |  | >1
6 | CON=Cc1cccc(OCCN2CCN(c3ccc(C)nn3)CC2)c1 [Compound 70] | 0.05 | >16 |  |  | >1
7 | CCON=Cc1cccc(OCCN2CCN(c3ccc(C)nn3)CC2)c1 [Compound 71] | 0.05 | >18 |  |  | >1
8 | C=CCON=Cc1cccc(OCCN2CCN(c3ccc(C)nn3)CC2)c1 [Compound 72] | 0.16 | >6 |  |  | >1
9 | CON=Cc1ccc(OCCN2CCN(c3ccc(Cl)nn3)CC2)cc1 [Compound 73] | 0.003 | >312 |  |  | >1
10 | C=CCON=Cc1ccc(OCCN2CCN(c3ccc(Cl)nn3)CC2)cc1 [Compound 74] | 0.02 | >46 |  |  | >1
11 | CON=Cc1cccc(OCCN2CCN(c3ccc(Cl)nn3)CC2)c1 [Compound 75] | 0.01 | >98 |  |  | >1
12 | CCON=Cc1cccc(OCCN2CCN(c3ccc(Cl)nn3)CC2)c1 [Compound 76] | 0.01 | >98 |  |  | >1
13 | C=CCON=Cc1cccc(OCCN2CCN(c3ccc(Cl)nn3)CC2)c1 [Compound 77] | 0.003 | >279 |  |  | >1
14 | CCON=Cc1ccc(OCCC2CCN(c3ccc(C(F)(F)F)cn3)CC2)cc1 [Compound 84] | 0.05 | >19.6 |  |  | >1
15 | CCCON=Cc1ccc(OCCC2CCN(c3ccc(C)nn3)CC2)cc1 [Compound 85] | 0.08 | >12 |  |  | >1
16 | C=CCON=Cc1ccc(OCCC2CCN(c3ccc(C)nn3)CC2)cc1 [Compound 87] | 0.01 | >51 |  |  | >1
17 | C#CCON=Cc1ccc(OCCC2CCN(c3ccc(C)nn3)CC2)cc1 [Compound 88] | 0.005 | >172 |  |  | >1
18 | CON=Cc1ccc(OCCCC2CCN(c3ccc(Cl)nn3)CC2)cc1 [Compound 89] | 0.005 | >174 |  |  | >1
19 | CON=Cc1cccc(OCCCC2CCN(c3ccc(Cl)nn3)CC2)c1 [Compound 91] | 0.02 | >46 |  |  | >1
20 | CCON=Cc1cccc(OCCCC2CCN(c3ccc(Cl)nn3)CC2)c1 [Compound 92] | 0.20 | >5 |  |  | >1
21 | CON=Cc1ccc(OCCCC2CCN(c3ccc(C)nn3)CC2)cc1 [Compound 94] | 0.024 | >41 |  |  | >1
22 | CCON=Cc1ccc(OCCCC2CCN(c3ccc(C)nn3)CC2)cc1 [Compound 95] | 0.30 | >3 |  |  | >1
23 | CCON=Cc1cccc(OCCCC2CCN(c3ccc(C)nn3)CC2)c1 [Compound 98] | 0.255 | >3 |  |  | >1
24 | C=CCON=Cc1cccc(OCCCC2CCN(c3ccc(C)nn3)CC2)c1 [Compound 99] | 0.205 | >4 |  |  | >1

Row | Compound | Activity on Rhinovirus Type 1A EC50 (HRV type 1A) [µg/mL] | Activity on Rhinovirus Type 1A SI (HRV type 1A) | Activity on Rhinovirus Type 2 EC50 (HRV type 2; HRV type 2 in KB cells, CPE inhibition) [µg/mL] | Activity on Rhinovirus Type 2 SI (HRV type 2; selectivity index = CC50 or MTC divided by EC50, HRV type 2, KB cells) | Activity on Rhinovirus Type 1A MTC [1]
25 | CON=Cc1ccc(OCCCC2CCN(c3cccnn3)CC2)cc1 [Compound 102] | 0.059 | >17 |  |  | >1
26 | CCON=Cc1ccc(OCCCC2CCN(c3cccnn3)CC2)cc1 [Compound 103] | 0.266 | >3 |  |  | >1
27 | CON=Cc1cccc(OCCCC2CCN(c3cccnn3)CC2)c1 [Compound 105] | 0.126 | >8 |  |  | >1
28 | C=CCON=Cc1cccc(OCCCC2CCN(c3cccnn3)CC2)c1 [Compound 107] | 0.062 | >16 |  |  | >1
29 | CON=C(C)c1cc(C)c(OCCCc2cc(C)no2)c(C)c1 [Compound 109] | 0.053 | >18.8 |  |  | >1
30 | C#CCON=Cc1cc(C)c(OCCCc2cc(C)no2)c(C)c1 [Compound 119] | 0.046 | >21.4 |  |  | >1
31 | CCON=Cc1cc(C)c(OCCCCCCc2cc(C)no2)c(C)c1 [Compound 120] | 0.04 | >20 |  |  | >1
32 | CCON=Cc1cc(C)c(OCCCCCCCc2cc(C)no2)c(C)c1 [Compound 121] | 0.05 | >16 |  |  | >1
33 | CCON=Cc1cc(C)c(OCCCCCc2cc(C)no2)c(C)c1 [Compound 122] | 0.181 | >5 |  |  | >1
34 | CCON=Cc1cc(C)c(OCCCCc2cc(C)no2)c(C)c1 [Compound 123] | 0.060 | >16 |  |  | >1
35 | Cc1cc(CCCOc2c(C)cc(C=NOCC(F)(F)F)cc2C)on1 [Compound 124] | 0.719 | >1 |  |  | >1
36 | CCON=Cc1ccc(OCCC2CCN(c3ccc(CO)nn3)CC2)cc1 [Compound 129] | 0.048 | >20 |  |  | >1
37 | CCCON=Cc1cccc(OCCN2CCN(c3ccc(C)nn3)CC2)c1 [Compound 136] | 0.598 | >1 |  |  | >1
38 | CCON=Cc1cc(C)c(OCCCc2cc(C3CC3)no2)c(C)c1 [Compound 137] | 0.054 | >18 |  |  | >1
39 | CCON=Cc1cc(C)c(OCCCCc2cc(CC)no2)c(C)c1 [Compound 138] | 0.07 | >15 |  |  | >1
40 | CCCc1cc(CCCCOc2c(C)cc(C=NOCC)cc2C)on1 [Compound 139] | 0.19 | >5 |  |  | >1
41 | CON=Cc1ccc(OCCC2CCCN(c3ccc(Cl)nn3)C2)cc1 (centres unmarked) [Compound 140] | 0.016 | >61 |  |  | >1
42 | C=CCON=Cc1ccc(OCCC2CCCN(c3ccc(Cl)nn3)C2)cc1 (centres unmarked) [Compound 141] | 0.166 | >6 |  |  | >1
43 | CCON=Cc1ccc(OCCC2CCCN(c3ccc(Cl)nn3)C2)cc1 (centres unmarked) [Compound 142] | 0.055 | >18 |  |  | >1
44 | Cc1ccc(N2CCC(CCOc3ccc(C=NOCCF)cc3)CC2)nn1 [Compound 143] | 0.020 | >50 |  |  | >1
45 | CCO/N=C/c1ccc(OCCCCCNc2ccc(Cl)nn2)cc1 [Compound 147] | 0.194 | >5 |  |  | >1
46 | CCO/N=C/c1ccc(OCCC2CCN(c3cnc4cc(Cl)ccc4n3)CC2)cc1 [Compound 210] | 3.96 | >2.5 |  |  | >10
47 | CCO/N=C/c1ccc(Oc2cnc3cc(Cl)ccc3n2)cc1 [Compound 211] | 0.07 | >151 |  |  | >10
